Columns and labels:
LcOe 229 [1] = target: T1, LcOe 229 (Oenococcus oeni, UniProt Q04HQ8); type: biochemical; settings: 2 mM ABTS, 0.1 mM CuSO4, McIlvaine buffer pH 2.5
T1 construct: gene OEOE_0009
T1 sequence (Q04HQ8 1-488): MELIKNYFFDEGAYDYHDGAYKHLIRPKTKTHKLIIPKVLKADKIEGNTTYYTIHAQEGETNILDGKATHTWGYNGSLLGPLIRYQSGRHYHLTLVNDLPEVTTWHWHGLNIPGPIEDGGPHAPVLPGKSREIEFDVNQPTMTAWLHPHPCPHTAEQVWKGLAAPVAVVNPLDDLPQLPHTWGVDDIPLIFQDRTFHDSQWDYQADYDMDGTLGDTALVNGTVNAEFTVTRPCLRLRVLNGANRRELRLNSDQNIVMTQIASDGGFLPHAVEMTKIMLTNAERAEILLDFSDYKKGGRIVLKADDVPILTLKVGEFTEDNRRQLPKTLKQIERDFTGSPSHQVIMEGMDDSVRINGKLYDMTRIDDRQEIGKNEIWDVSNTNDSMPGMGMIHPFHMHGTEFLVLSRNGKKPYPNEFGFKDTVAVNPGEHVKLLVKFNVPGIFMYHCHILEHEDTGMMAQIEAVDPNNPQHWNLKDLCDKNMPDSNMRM

LcOe 229 [2] = target: T1, LcOe 229; settings: read-out: % residual activity at 1 mM
[3] = substrate: COc1cccc(OC)c1O; assay: oxidation followed at OD468, microplate, initial rates; type: biochemical, Oenococcus oeni; settings: McIlvaine buffer pH 8, 24 °C, hyperbolic

Molecule | % residual activity at 1 mM (LcOe 229 [1]) | remaining activity at 1000 µM (LcOe 229 [2]) | further results
C#CCN(C)C(C)Cc1ccccc1 (stereo not drawn) [deprenyl] | observed with ZnCl2, EDTA, pargyline, EDC, deprenyl, clorgyline, and NaCl | – | –
C#CCN(C)Cc1ccccc1 [pargyline] | observed with ZnCl2, EDTA, pargyline, EDC, deprenyl, clorgyline, and NaCl | – | –
C#CCN[C@@H]1CCc2ccccc21 [rasagiline] | – | 65% | –
NNC(N)=O [semicarbazide] | – | < 15% | –
C#CCN(C)CCCOc1ccc(Cl)cc1Cl [clorgyline] | observed with ZnCl2, EDTA, pargyline, EDC, deprenyl, clorgyline, and NaCl | – | –
CCN=C=NCCCN(C)C [EDC] | observed with ZnCl2, EDTA, pargyline, EDC, deprenyl, clorgyline, and NaCl | – | –
NC1CC1 [cyclopropylamine] | – | 77% | –
c1ccc(-c2ccccn2)nc1 [2,2′-bipyridyl] | – | 94% | –
LcOe 229 (Oenococcus oeni PSU-1) (protein, full length, 488 residues, 55544 Da, in pET-28a(+) NheI/BamHI, N-terminal His tag (thrombin-cleavable; cleavage told for crystallography), E. coli BL21(DE3)/pGro7; Ni-NTA; monomer; PCR fragment given as 1641 bp) MELIKNYFFDEGAYDYHDGAYKHLIRPKTKTHKLIIPKVLKADKIEGNTTYYTIHAQEGETNILDGKATHTWGYNGSLLGPLIRYQSGRHYHLTLVNDLPEVTTWHWHGLNIPGPIEDGGPHAPVLPGKSREIEFDVNQPTMTAWLHPHPCPHTAEQVWKGLAAPVAVVNPLDDLPQLPHTWGVDDIPLIFQDRTFHDSQWDYQADYDMDGTLGDTALVNGTVNAEFTVTRPCLRLRVLNGANRRELRLNSDQNIVMTQIASDGGFLPHAVEMTKIMLTNAERAEILLDFSDYKKGGRIVLKADDVPILTLKVGEFTEDNRRQLPKTLKQIERDFTGSPSHQVIMEGMDDSVRINGKLYDMTRIDDRQEIGKNEIWDVSNTNDSMPGMGMIHPFHMHGTEFLVLSRNGKKPYPNEFGFKDTVAVNPGEHVKLLVKFNVPGIFMYHCHILEHEDTGMMAQIEAVDPNNPQHWNLKDLCDKNMPDSNMRM | – | – | Km [3]: 0.73 (±0.17) mM; Vmax [3]: 0.01 µmol/min/mg; kcat [3]: 0.01 s⁻¹; kcat/Km [3]: 10 M⁻¹ s⁻¹

Reference: PMC11312515, “Biochemical and Structural Characterization of a Novel Psychrophilic Laccase (Multicopper Oxidase) Discovered from Oenococcus oeni 229 (ENOLAB 4002)” (International Journal of Molecular Sciences, 2024)
